Test results: ChEMBL document CHEMBL4417633, “Inhibitory polypeptides specific to WNT inhibitors” (2017)
Where a SMILES comes first, the peptide text is derived from it.

Columns and labels:
[1] = target: T1, Dickkopf-related protein 1 (Homo sapiens, UniProt O94907); assay: Inhibition of biotin-labeled human recombinant DKK1 assessed as reduction in DKK1 interaction with LRP-6/Fc incubated overnight by chemiluminescence based Alpha-screen assay
T1 sequence (O94907 whole entry): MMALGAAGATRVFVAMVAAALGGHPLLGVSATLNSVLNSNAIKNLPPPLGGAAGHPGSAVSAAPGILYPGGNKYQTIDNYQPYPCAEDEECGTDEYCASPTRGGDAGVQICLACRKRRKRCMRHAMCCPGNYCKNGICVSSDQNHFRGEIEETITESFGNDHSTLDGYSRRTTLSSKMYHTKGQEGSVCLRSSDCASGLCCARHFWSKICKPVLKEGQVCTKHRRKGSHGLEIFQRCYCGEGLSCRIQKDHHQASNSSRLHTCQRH

[2] = target: T2, Dickkopf WNT-signaling pathway inhibitor 1 (Rattus norvegicus, UniProt A6I0Z0); assay: Inhibition of biotin-labeled rat recombinant DKK1 assessed as reduction in DKK1 interaction with LRP-6/Fc incubated overnight by chemiluminescence based Alpha-screen assay
T2 sequence (A6I0Z0 whole entry): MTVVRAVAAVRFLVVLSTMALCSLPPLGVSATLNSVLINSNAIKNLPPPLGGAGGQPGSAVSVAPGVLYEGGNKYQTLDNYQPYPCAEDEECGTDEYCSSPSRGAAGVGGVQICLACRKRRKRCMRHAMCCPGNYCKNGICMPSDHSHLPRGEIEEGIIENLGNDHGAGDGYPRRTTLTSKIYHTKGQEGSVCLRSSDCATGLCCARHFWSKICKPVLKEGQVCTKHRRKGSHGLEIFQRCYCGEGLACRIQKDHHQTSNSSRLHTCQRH

| Compound | IC50 [1] [nM] | IC50 [2] [nM] |
| --- | --- | --- |
| CC[C@H](C)[C@H](NC(=O)[C@H](CC(N)=O)NC(=O)CNC(=O)[C@H](CS)NC(=O)[C@H](CCC(N)=O)NC(=O)[C@H](Cc1ccccc1)NC(=O)[C@H](Cc1ccc(O)cc1)NC(=O)[C@H](CO)NC(=O)[C@@H]1CCCN1C(=O)[C@@H]1CCCN1C(=O)[C@@H](N)CS)C(=O)N[C@@H](CC(N)=O)C(=O)N[C@@H](Cc1cnc[nH]1)C(=O)N[C@@H](CS)C(=O)N[C@@H](Cc1ccc(O)cc1)C(=O)N1CCC[C@H]1C(=O)N[C@@H](CCSC)C(=O)N[C@@H](CCC(=O)O)C(=O)N[C@@H](Cc1c[nH]c2ccccc12)C(=O)N[C@@H](CCCNC(=N)N)C(=O)N[C@@H](CS)C(=O)N[C@@H](CC(=O)O)C(=O)NCC(=O)N[C@@H](Cc1ccccc1)C(=O)N[C@@H](Cc1cnc[nH]1)C(=O)N[C@@H](CC(=O)O)C(=O)N[C@@H](CS)C(=O)N[C@H](C(=O)N[C@@H](CC(=O)O)C(=O)NCC(=O)N[C@@H](CO)C(=O)N[C@@H](CC(=O)O)C(=O)N[C@@H](CCC(=O)O)C(=O)N[C@@H](CCC(N)=O)C(=O)NCC(=O)N[C@@H](CS)C(=O)N1CCC[C@H]1C(=O)N[C@@H](Cc1ccc(O)cc1)C(=O)N[C@@H](CCCNC(=N)N)C(=O)N[C@H](C(=O)O)[C@@H](C)O)C(C)C (H-CPPSYFQCGNINHCYPMEWRCDGFHDCVDGSDEQGCPYRT-OH) | ≤ 1 | ≤ 1 |
| CC[C@H](C)[C@H](NC(=O)[C@H](CC(=O)O)NC(=O)CNC(=O)[C@H](CC(=O)O)NC(=O)[C@H](CS)NC(=O)[C@H](CC(C)C)NC(=O)[C@H](Cc1ccccc1)NC(=O)[C@H](CO)NC(=O)[C@H](Cc1ccccc1)NC(=O)[C@@H]1CCCN1C(=O)[C@H](Cc1ccccc1)NC(=O)[C@H](CS)NC(=O)[C@@H](NC(=O)[C@H](CCCCN)NC(=O)[C@H](CC(=O)O)NC(=O)[C@H](C)NC(=O)[C@H](CS)NC(=O)[C@H](CCSC)NC(=O)[C@H](Cc1ccccc1)NC(=O)[C@H](CCC(=O)O)NC(=O)[C@H](CC(N)=O)NC(=O)[C@H](CCC(N)=O)NC(=O)[C@@H]1CCCN1C(=O)[C@@H](N)CS)[C@@H](C)O)C(=O)N[C@@H](CC(=O)O)C(=O)N[C@@H](CS)C(=O)N[C@@H](Cc1ccc(O)cc1)C(=O)N[C@@H](CC(=O)O)C(=O)NCC(=O)N[C@@H](CO)C(=O)N[C@@H](CC(=O)O)C(=O)N[C@@H](CCC(=O)O)C(=O)N[C@@H](C)C(=O)N[C@@H](Cc1ccc(O)cc1)C(=O)N[C@@H](CS)C(=O)N1CCC[C@H]1C(=O)N[C@@H](CO)C(=O)N[C@@H](CCCNC(=N)N)C(=O)N[C@H](C(=O)O)[C@@H](C)O (H-CPQNEFMCADKTCFPFSFLCDGDIDCYDGSDEAYCPSRT-OH) | ≤ 1 | ≤ 1 |
| CC[C@H](C)[C@H](NC(=O)[C@H](CCCCN)NC(=O)[C@H](CC(=O)O)NC(=O)[C@@H]1CCCN1C(=O)[C@H](CS)NC(=O)[C@H](CCSC)NC(=O)[C@H](Cc1ccccc1)NC(=O)[C@H](CCC(=O)O)NC(=O)[C@H](CC(N)=O)NC(=O)[C@H](CO)NC(=O)[C@@H]1CCCN1C(=O)[C@@H](N)CS)C(=O)N[C@@H](CS)C(=O)N[C@@H](Cc1ccccc1)C(=O)N1CCC[C@H]1C(=O)N[C@@H](CC(C)C)C(=O)N[C@@H](CO)C(=O)N[C@@H](Cc1ccccc1)C(=O)N[C@@H](CC(C)C)C(=O)N[C@@H](CS)C(=O)N[C@@H](CC(=O)O)C(=O)NCC(=O)N[C@@H](CCC(=O)O)C(=O)N[C@@H](CC(N)=O)C(=O)N[C@@H](CC(=O)O)C(=O)N[C@@H](CS)C(=O)N[C@@H](CCC(=O)O)C(=O)N[C@@H](CC(=O)O)C(=O)NCC(=O)N[C@@H](CO)C(=O)N[C@@H](CC(=O)O)C(=O)N[C@@H](CCC(=O)O)C(=O)N[C@@H](CC(=O)O)C(=O)N[C@@H](Cc1ccc(O)cc1)C(=O)N[C@@H](CS)C(=O)N1CCC[C@H]1C(=O)N[C@@H](CO)C(=O)N[C@@H](CCCNC(=N)N)C(=O)N[C@H](C(=O)O)[C@@H](C)O (H-CPSNEFMCPDKICFPLSFLCDGENDCEDGSDEDYCPSRT-OH) | ≤ 1 | ≤ 1 |
| CSCC[C@H](NC(=O)[C@H](CCCCN)NC(=O)[C@H](CC(=O)O)NC(=O)[C@@H]1CCCN1C(=O)[C@H](CS)NC(=O)[C@H](CCSC)NC(=O)[C@H](Cc1ccccc1)NC(=O)[C@H](CCC(=O)O)NC(=O)[C@H](CC(N)=O)NC(=O)[C@H](CO)NC(=O)[C@@H]1CCCN1C(=O)[C@@H](N)CS)C(=O)N[C@@H](CS)C(=O)N[C@@H](Cc1ccccc1)C(=O)N1CCC[C@H]1C(=O)N[C@@H](CC(C)C)C(=O)N[C@@H](CO)C(=O)N[C@@H](Cc1ccccc1)C(=O)N[C@@H](CCCNC(=N)N)C(=O)N[C@@H](CS)C(=O)N[C@@H](CC(=O)O)C(=O)NCC(=O)N[C@@H](CCC(=O)O)C(=O)N[C@@H](CC(N)=O)C(=O)N[C@@H](CC(=O)O)C(=O)N[C@@H](CS)C(=O)N[C@@H](CCC(=O)O)C(=O)N[C@@H](CC(=O)O)C(=O)NCC(=O)N[C@@H](CO)C(=O)N[C@@H](CC(=O)O)C(=O)N[C@@H](CCC(=O)O)C(=O)N[C@@H](CC(C)C)C(=O)N[C@@H](Cc1ccc(O)cc1)C(=O)N[C@@H](CS)C(=O)N1CCC[C@H]1C(=O)N[C@@H](CO)C(=O)N[C@@H](CCCNC(=N)N)C(=O)N[C@H](C(=O)O)[C@@H](C)O (H-CPSNEFMCPDKMCFPLSFRCDGENDCEDGSDELYCPSRT-OH) | ≤ 1 | ≤ 1 |

Other lines, results leading:

| IC50 [1] [nM] | IC50 [2] [nM] | Compound |
| --- | --- | --- |
| ≤ 1 | ≤ 1 | CSCC[C@H](NC(=O)[C@H](Cc1ccccc1)NC(=O)[C@H](CCC(=O)O)NC(=O)[C@H](CC(N)=O)NC(=O)[C@H](CCCNC(=N)N)NC(=O)[C@@H]1CCCN1C(=O)[C@@H](N)CS)C(=O)N[C@@H](CS)C(=O)N[C@@H](C)C(=O)N[C@@H](CC(=O)O)C(=O)N[C@@H](CCCCN)C(=O)N[C@@H](CCSC)C(=O)N[C@@H](CS)C(=O)N[C@@H](Cc1ccccc1)C(=O)N1CCC[C@H]1C(=O)N[C@H](C(=O)N[C@@H](CO)C(=O)N[C@@H](Cc1ccccc1)C(=O)N[C@@H](CC(C)C)C(=O)N[C@@H](CS)C(=O)N[C@@H](CC(=O)O)C(=O)NCC(=O)N[C@@H](CCC(=O)O)C(=O)N[C@@H](CC(N)=O)C(=O)N[C@@H](CC(=O)O)C(=O)N[C@@H](CS)C(=O)N[C@@H](CCC(=O)O)C(=O)N[C@@H](CC(=O)O)C(=O)NCC(=O)N[C@@H](CO)C(=O)N[C@@H](CC(=O)O)C(=O)N[C@@H](CCC(=O)O)C(=O)N[C@@H](CC(=O)O)C(=O)N[C@@H](Cc1ccc(O)cc1)C(=O)N[C@@H](CS)C(=O)N1CCC[C@H]1C(=O)N[C@@H](CO)C(=O)N[C@@H](CCCNC(=N)N)C(=O)N[C@H](C(=O)O)[C@@H](C)O)C(C)C (H-CPRNEFMCADKMCFPVSFLCDGENDCEDGSDEDYCPSRT-OH) |
| ≤ 1 | ≤ 1 | CC[C@H](C)[C@H](NC(=O)[C@H](CCCCN)NC(=O)[C@H](CC(=O)O)NC(=O)[C@H](C)NC(=O)[C@H](CS)NC(=O)[C@H](CCSC)NC(=O)[C@H](Cc1ccccc1)NC(=O)[C@H](CCC(=O)O)NC(=O)[C@H](CC(N)=O)NC(=O)[C@H](CO)NC(=O)[C@@H]1CCCN1C(=O)[C@@H](N)CS)C(=O)N[C@@H](CS)C(=O)N[C@@H](Cc1ccccc1)C(=O)N1CCC[C@H]1C(=O)N[C@@H](CC(C)C)C(=O)N[C@@H](CO)C(=O)N[C@@H](Cc1ccccc1)C(=O)N[C@@H](CC(C)C)C(=O)N[C@@H](CS)C(=O)N[C@@H](CC(=O)O)C(=O)NCC(=O)N[C@@H](CCC(=O)O)C(=O)N[C@@H](CC(N)=O)C(=O)N[C@@H](CC(=O)O)C(=O)N[C@@H](CS)C(=O)N[C@@H](CC(C)C)C(=O)N[C@@H](CC(=O)O)C(=O)NCC(=O)N[C@@H](CO)C(=O)N[C@@H](CC(=O)O)C(=O)N[C@@H](CCC(=O)O)C(=O)N[C@@H](CC(=O)O)C(=O)N[C@@H](Cc1ccc(O)cc1)C(=O)N[C@@H](CS)C(=O)N1CCC[C@H]1C(=O)N[C@@H](CO)C(=O)N[C@@H](CCCNC(=N)N)C(=O)N[C@H](C(=O)O)[C@@H](C)O (H-CPSNEFMCADKICFPLSFLCDGENDCLDGSDEDYCPSRT-OH) |
| 40 to 80 | 40 to 80 | CC[C@H](C)[C@H](NC(=O)[C@H](CC(C)C)NC(=O)[C@@H]1CCCN1C(=O)[C@H](Cc1ccccc1)NC(=O)[C@H](CS)NC(=O)[C@H](CCSC)NC(=O)[C@H](CCCCN)NC(=O)[C@H](CC(=O)O)NC(=O)[C@H](C)NC(=O)[C@H](CS)NC(=O)[C@H](CCSC)NC(=O)[C@H](Cc1ccccc1)NC(=O)[C@H](CCC(=O)O)NC(=O)[C@H](CC(N)=O)NC(=O)[C@H](CO)NC(=O)[C@@H]1CCCN1C(=O)[C@@H](N)CS)C(=O)N[C@@H](Cc1ccccc1)C(=O)N[C@@H](CC(C)C)C(=O)N[C@@H](CS)C(=O)N[C@@H](CC(=O)O)C(=O)NCC(=O)N[C@@H](CCC(=O)O)C(=O)N[C@@H](CC(N)=O)C(=O)N[C@@H](CC(=O)O)C(=O)N[C@@H](CS)C(=O)N[C@@H](CCC(=O)O)C(=O)N[C@@H](CC(=O)O)C(=O)NCC(=O)N[C@@H](CO)C(=O)N[C@@H](CC(=O)O)C(=O)N[C@@H](CCC(=O)O)C(=O)N[C@H](C(=O)N[C@@H](CC(=O)O)C(=O)N[C@@H](CS)C(=O)N1CCC[C@H]1C(=O)N[C@@H](CO)C(=O)N[C@@H](CCCNC(=N)N)C(=O)N[C@H](C(=O)O)[C@@H](C)O)C(C)C (H-CPSNEFMCADKMCFPLIFLCDGENDCEDGSDEVDCPSRT-OH) |
